For one data set, the system named is Caco-2 cells. Nature of the data set: Caco-2 permeability. The class given is in vitro ADME. The note with it: apical to basolateral. The text has this: (§1) page 5: Running title: PreclinicalPK -PD of antimalarials 73 to high through put form at using in- house standard assa y protocols that are described in the 74 literature. 75 (a)HT-Equilibrium solubilit y at pH 6.8( 1); (b)Parallel Artificial Membrane P ermeability Assa y 76 expressed in % fraction absorbed (FA) ( 2,3 ); (c)Apparent permeability from apical to […] 78 tested; (d)intrinsic clearance in mouse liver micro somes ex pressed as µ L/ min/mg protein, in 79 the presen ce of liver enzym es ( 6); (e)Mous e plasm a protein binding using rapid equilibrium […] 81 82 83 84 85 86 87 88 89 90 91 92 93 94 95 96 97 98 5
A general note: Caco-2 monolayers are a common model of the intestinal barrier.

The subject of the next data set is P. falciparum NF54. Nature of the data set: In vitro [3H]hypoxanthine incorporation assay, P. falciparum NF54. The data set is classed as cell-based, Plasmodium falciparum. The conditions noted are these: 16 h + 8 h incubation; read-out: IC50 (mean ± SD) for P. falciparum NF54 (n = 3). How it is done: Human erythrocytes served as the host cells. In vitro antimalarial activity was measured using the [^3H]hypoxanthine incorporation assay ([36]) with strain NF54 of P. falciparum (obtained from Hoffmann-LaRoche Ltd.). The compounds were dissolved in dimethyl sulfoxide (DMSO) at a concentration of 10 mM, diluted in hypoxanthine-free culture medium, and titrated in duplicate over a 64-fold range in 96-well plates. […] The parasites were harvested onto glass fiber filters, and radioactivity was measured using a BetaPlate liquid scintillation counter (Wallac, Zurich, Switzerland). All assays were repeated at least three times. The results were recorded and expressed as a percentage of the untreated controls. […] In addition, for the PK-PD analysis of KAE609, an IC99 value was determined by transforming the data from a scintillation counter (Anscombe transformation) to account for Poissonian measurement error. […] Each of the three replicates was performed on a distinct 96-well plate. This has been accounted for in the fitting procedure by means of a Bayesian hierarchical model. The software used for parameter inference was Stan ([37]).

A short description of data set [1]: In vivo PK after single p.o. and i.v. dosing in CD-1 mice. More on the design: species or system female CD-1 mice. The note with it: CD-1 mice. The protocol:
The Institutional Animal Care and Use Committee (IACUC) of the Novartis Institute for Tropical Diseases (NITD), registered with the Agri-Food and Veterinary authority (AVA), Government of Singapore, reviewed and approved all animal experimental protocols. […] The mice were allowed to acclimate before the initiation of the experiments. Feed and water were given ad libitum. […] The blood samples from the mice were collected at 0.02 (for i.v. only), 0.08, 0.25, 0.5, 1, 2, 4, 8, 16, and 24 h postdosing. The dose proportionality studies were conducted with KAE609. […] Additional samples were collected at 32 h and 48 h postdose for the 1- and 5-mg/kg dose groups and up to 72 h postdose for the 100-mg/kg dose group. Groups of three mice were used for each time point. Blood was centrifuged at 13,000 rpm for 7 min at 4°C, and plasma was harvested and stored at -20°C until analysis. […] After vortexing and centrifuging the mixture, the supernatant was removed and 5 μl of sample analyzed. Analyte quantitation was performed by high-performance liquid chromatography coupled with tandem mass spectrometry (LC-MS/MS). […] Instrument control and data acquisition were performed using the Applied Biosystems software Analyst 1.4.2. […] Multiple-reaction monitoring (MRM) was combined with optimized MS parameters to maximize detection specificity and sensitivity. The most intense MRM transitions [338.3/295.1 for (+)-1, 370.1/327.0 for (+)-2, 370.0/326.9 for (+)-3, 354.1/310.8 for (+)-4, 354.1/311.2 for (+)-5, 372.1/329.1 for (+)-6, 388.0/331.8 for (+)-7, 372.1/316.1 for (-)-6, and 388/332 for (-)-7] were used for quantitation. Most compounds were analyzed using electrospray ionization in the negative mode, except (+)-1, which was analyzed using positive mode. The recovery of the compounds from plasma was good and consistent across the concentration range studied. The lower limits of quantification for different compounds ranged from 1.3 to 70 ng/ml in plasma. A calibration curve was freshly prepared and analyzed with every set of study samples. Intraday variability was established with triplicate quality control samples at three concentration levels. The results were accepted if relative standard deviation was <15%. The mean values of the compound concentrations in plasma were obtained from three animals at each time point and plotted against time to generate concentration-time profiles. […] The oral bioavailability (F) was calculated as the ratio between the area under the concentration-time curve from 0 to infinity (AUC0-∞) following oral administration and the AUC0-∞ following intravenous administration corrected for dose (F = […].).

A short description of data set [2]: Mouse plasma protein binding, rapid equilibrium dialysis. The data set is classed as in vitro ADME.
Excerpt: as §1
(In equilibrium dialysis only unbound substance equilibrates across the membrane.)

The nature of data set [3]: Parallel artificial membrane permeability assay (PAMPA). The class given is in vitro ADME. The conditions noted are these: % fraction absorbed.
Excerpt: as §1
On the technique in general: In PAMPA a lipid-coated filter parts donor from acceptor wells.

Data set [4] in a line: Intrinsic clearance in mouse liver microsomes. The data set is classed as in vitro ADME. The note with it: per mg protein.
Excerpt: as §1

The subject of data set [5] is P. berghei GFP ANKA malaria strain PbGFPCON. Description: Dose-response efficacy in the P. berghei malaria mouse model. The data set is classed as in vivo, female NMRI mice. The text has this:
All in vivo studies conducted at the Swiss Tropical and Public Health Institute (TPH) adhered to local and national regulations of laboratory animal welfare in Switzerland (permission no. 1731). For in vivo efficacy, female (specific-pathogen-free) […] (NMRI) mice were obtained from Janvier, Le Genest-Saint-Isle, France. Only mice without visible signs of disease were used for the study. Standard laboratory conditions were adopted for husbandry. In vivo antimalarial activity was assessed using groups of five female NMRI mice (20 to 22 g) intravenously infected on day zero with 2 × 10^7 erythrocytes parasitized with P. berghei GFP ANKA malaria strain PbGFPCON (a donation from A. P. Waters and C. J. Janse, Leiden University) ([39]). Untreated control mice typically died between day six and day seven postinfection. Experimental compounds were formulated in 10% ethanol, 30% PEG 400, and 60% of 10% vitamin E TPGS and were administered orally in a volume of 10 ml/kg. Dose-response efficacy studies were conducted for each spiroindolone analog. Doses of 2.5, 5, 10, 30, and 100 mg/kg were administered to groups of 5 mice each as a single dose at 24 h postinfection. Parasitemia, expressed as parasitized red blood cells (pRBCs) of >100 RBCs, was determined 72 h postinfection using standard flow cytometry techniques ([39]).
Data analysis was done using nonlinear mixed-effect modeling (NONMEM version VI 2.0), which analyzed the PD data from multiple dose groups obtained simultaneously from different experiments. Within NONMEM, first-order conditional estimation (FOCE) was the method used ([40]). The log-transformed dose and level of parasitemia were used for analysis. For each compound, a dose-response model was built, and the ED90 (effective dose lowering 90% of parasitemia) values were determined using equation 1 ([41]), where P is the parasitemia measured at any given dose, Pmax is the maximum level of parasitemia, Pmin is the minimum level of parasitemia, EZ50 is the dose required to produce 50% of the maximal effect, s is the Hill slope describing the steepness of the curve, and x is the dose (in mg/kg). 1 P=Pmin +{[Pmax−Pmin]/[1+10^(logEZ50−log x)×s]}

In data set [6] the test system is P. berghei GFP ANKA PbGFPCON. Nature of the data set: In vitro (ex vivo) P. berghei maturation assay. The class given is cell-based, Plasmodium berghei. The note with it: 16 h + 8 h incubation; read-out: IC50 (mean ± SD) for P. berghei GFP ANKA PbGFPCON (n = 3). How it is done: For the in vitro (ex vivo) P. berghei maturation assays ([38]), heparinized blood from infected mice (P. berghei GFP ANKA malaria strain PbGFPCON, a donation from A. P. Waters and C. J. Janse, Leiden University, Leiden, the Netherlands) ([39]) was washed with 9 ml of hypoxanthine-free culture medium and diluted with hypoxanthine-free culture medium and red blood cells (RBCs) from uninfected mice to a hematocrit of 5% and a parasitemia of 0.3%. Serial compound dilutions were prepared in DMSO and distributed as described above. The infected erythrocytes (0.3% final parasitemia and 2.5% final hematocrit) were added into the wells. After the plates were incubated for 16 h, 0.25 μCi of [^3H]hypoxanthine was added per well, and the plates were incubated for an additional 8 h. The parasites were harvested, and the in vitro (ex vivo) P. berghei IC50, IC90, and IC99 values were determined as described above.

The mark [7] stands for this setting: sigmoid dose-response model, single oral doses 24 h postinfection, parasitemia 72 h postinfection.

This is an account of results in PMC4335872, “Pharmacokinetic-Pharmacodynamic Analysis of Spiroindolone Analogs and KAE609 in a Murine Malaria Model” (Antimicrobial Agents and Chemotherapy, 2015).

As a reminder, the IC50 is the concentration at which inhibition is half-maximal. One may read the Tmax as the time at which the peak concentration occurs. Usually Cmax stands for the maximum level reached in the sampled fluid or tissue. In general, Hill slope refers to the slope factor of the fitted curve.

Structures are written as SMILES.

For the molecule `C[C@H]1Cc2c([nH]c3ccccc23)[C@@]2(N1)C(=O)Nc1ccc(Cl)cc12` [(+)-1], the “Caco-2 Papp (A-B)” value in the data set with Caco-2 cells is recorded as 7.19 10-6 cm/sec. Also, the IC50 in the data set on P. falciparum NF54 is 13 ± 2.2 nM. In addition, in data set [1] (i.v. 5 mg/kg), the CL worked out at 49.7 mL/min/kg, the Vss came to 0.9 L/kg and the “t1/2 (i.v.)” value came to 24 min. Further, the “F (oral bioavailability)” value in data set [1] (oral 25 mg/kg vs i.v. 5 mg/kg) is recorded as 13%. Also, in data set [1] (single oral dose 25 mg/kg), the “AUC0–24” value was found to be 1300 ng·h/mL, the Tmax was 15 min and the “t1/2 (oral)” value stood at 42 min. Moreover, the Cmax in data set [1] (single oral dose 25 mg/kg, plasma) stood at 1200 ng/mL. Also, the “Mouse PPB” value in data set [2] is on record as 98.4%. Moreover, the “PAMPA %FA” value in data set [3] was 97%. Further, the “Hepatic CLint in mouse liver microsomes” value in data set [4] is 770 µL/min/mg. In addition, in data set [5] (dose vs parasitemia model), the Hill slope is recorded as −3.1. Moreover, in data set [5] (setting [7]), the “Pmax (maximum parasitemia)” value is given as 33.11 and the “Pmin (minimum parasitemia)” value was 0.03. In data set [5] (single oral dose 24 h postinfection, parasitemia 72 h postinfection), the “ED90 (effective dose causing a 90% reduction in parasitemia)” value was 15.3 mg/kg. Further, in data set [6], the IC50 was 242 ± 124 nM.
